Data as given in US7794835B2, “Fixing solution, capsule structure, fixing method, fixing device and image forming apparatus” (Ricoh Company, Ltd., priority 2004, dated 2010).

assay: acute oral toxicity test LD50 (50 percent lethal dose); type: in vivo, rats or guinea pigs; conditions: worked out from LD50 in oral administration
Source text: A fixing solution according to the present invention includes aliphatic ester, held in a soluble state with respect to a solvent and having solubility or a swelling property with respect to a resin included in a toner. Thereby, a fixing solution, from which generation of odor is reduced, and by which a not-yet-fixed toner can be rapidly fixed, can be obtained. The aliphatic ester is applied as a softener softening a toner by dissolving or swelling the resin included in the toner. ‘Held in a soluble state’ means as being held in a size on the order of a molecule size on the order of […]. The aliphatic ester preferably has acute oral toxicity test LD50 larger than 3 g/kg in a viewpoint of a safety of humans.
For the first problem, LD50 is applied as a safety index, and a fixing solution was produced in such a manner that each of a solvent and a solute has LD50 not less than 3.0 g/kg. LD50 is a toxicity index of American Industrial Hygiene Association, and means a 50 percent lethal dose. This corresponds to an amount such that, 50% of the number of individuals are dead when a certain amount of test solute or a sample to test is given to rats or guinea pigs. […] Since this means that a 50% lethal dose for a weight of individuals of 1 kg is not less than 15 g, a presumable lethal dose of silicone oil for a human of 65 kg is not less than […] accordingly. […]

Compound	presumable lethal dose for a human of 65 kg
dimethylsiloxane	not less than 945 g

assay: not given; conditions: acute oral toxicity; cited from earlier work

Compound	LD50
CCOCCOC(=O)CCC(=O)OCCOCC [diethoxy ethyl succinate]	5000 mg/kg
CCO [ethanol]	20000 mg/kg
CCCCCCCCCCCC(=O)OCCCCCC [hexyl laureate]	8000 mg/kg
CCCCCCCCCCCCCCCC(=O)OCC(C)C [isobutyl palmitate, reference compound]	8000 mg/kg
CCCCCCCCCCCCCCCC(=O)OC(C)C [isopropyl palmitate, reference compound]	8000 mg/kg
CCCCCCCCCCCCCC(=O)OC(C)C [isopropylmyristate]	8000 mg/kg
CCCCCCCC(=O)OC [methylcaprylate, reference compound]	3000 mg/kg
CCCCCCCCCCCC [n-dodecane]	20000 mg/kg
CCCCCC [n-hexane]	28700 mg/kg
[Cl-].[Na+] [salt, reference compound]	3000 mg/kg

same assay, conditions: acute oral toxicity; listed as dimethyl silicone oil; cited from earlier work

Compound	LD50
dimethylsiloxane	not less than 15 g/kg
